Experimental data taken from patent publication US6008188A, “Cytokine potentiator and pharmaceutical formulation for cytokine administration” (Kanebo Limited, priority 1994, dated 1999).

What was measured:
[1] = system: Japanese native, male house rabbits; settings: rabbit, in vivo
Experimental: Aqueous solutions of N-Methyl-L-Serine, Ethanolamine and N-Methylethanolamine that had been adjusted to have a pH of 7 with hydrochloric acid were used as test samples.
Using Japanese native, male house rabbits (body weight: about 3 kg), the test samples were tested according to the Draize method (see Appraisal of the Safety of Chemicals in Foods, Drugs and Cosmetics, p. 46, 1959, edited and published by the Deitorial Committee, Association of Food and Drug Officials of U.S.A.).
24 hours after the last application, the tested area of each rabbit was checked to score the erythema, edema, scab and rhagades, if any, formed in the area.
The erythema score, the edema score, the scab score, and the rhagades score as referred to in Table 17 were summed up to obtain the cumulative stimulation score.
Next, from the cumulative stimulation scores, obtained were the degrees of stimulation with N-Methyl-L-Serine, Ethanolamine and N-Methylethanolamine,according to the criteria shown in Table 18 below.

[2] = system: Normal human fibroblasts [CCD45SK (ATCC CRL 1506)]; test: Response to TGF-β1: TIMP production by normal human fibroblasts (Test Examples 12-13); format: cell-based; settings: Test Example 12, 1 mM, 6 days, 3 ng/ml TGF-β1, 3 days
Experimental: Normal human fibroblasts [CCD45SK (ATCC CRL 1506) as prepared from the skin of a person] were suspended at a cell density of 1×10^5 cells/ml in the MEM medium, comprising 10% (V/V) FBS and 1% (V/V) non-essential amino acids (produced by Dai-Nippon Pharmaceutical Co.). The suspended cells were seeded into each well of a 12-well plate in an amount of 0.8 ml/well (corresponding to 8×10^4 cells/well) and incubated in a saturated aqueous vapor with 5% CO2 at 37° C.

## CN[C@@H](CO)C(=O)O [Example 1, N-methyl-L-serine]
[1]
  cumulative stimulation to the skin (in words): low
[2]; Homo sapiens, Fibroblast, control = 100, read-out: Response to TGF-β1 Increment
  activity at 1000 µM: 240%
[2]; mean ± SD, n = 3
  TIMP Production: 240 ± 21 unit/ml
